{"source": "patent US20040180959A1", "about": "“Gabapentin analogues for fibromy algia and concomitant disorders” (priority 2002, published 2004)", "tested_on": "Sprague-Dawley rats", "experiment": "Rat model of footpad tactile allodynia from prior injection of acid into the gastrocnemius muscle", "type": "in vivo", "conditions": "for Mean Paw Withdrawal Threshold before dose (g ± S.E.M.): after acid injection", "method": "A rat model of persistent mechanical allodynia has been developed that is consistent with the muscle tenderness found in these patients. […] This model was utilized to evaluate compound A for its ability to inhibit allodynia.\nOn Day 0, male Sprague-Dawley rats (˜200 g body weight) in their dark cycle were placed in suspended wire-bottom cages and allowed to acclimate for 0.5 hours. […] Von Frey hairs were applied to the plantar surface for up to 6 seconds, and a flinching of the paw during that time frame was considered a positive response. After assessment, the right gastrocnemius muscle was shaved, swabbed with alcohol, and injected with 0.1 mL of 0.9% NaCl solution acidified to pH 4 with HCl. The injection was repeated on Day 5. Animals were manipulated with a dynamic plantar aesthesiometer (Ugo Basile, Comerio-Varese, Italy) on Days 6, 7, and 8 to facilitate induction of the allodynia. To screen the rats for the development of allodynia, the 15.1 g Von Frey hair was applied to the ipsilateral paw on Day 11. Positive responders from that test were included in the compound evaluation study. On Day 12 (the day of peak allodynia), animals were assigned into treatment groups, and then their ipsilateral paw withdrawal thresholds were determined to establish the allodynia (reduction in paw withdrawal threshold) compared to baseline values. Rats were then orally dosed with 10 mL/kg vehicle (0.5% hydroxypropyl-methylcellulose/0.2% Tween 80) or the indicated dose of compound A. Paw withdrawal thresholds were reassessed by Von Frey hairs in blinded fashion 2 hours after dosing for the dose-response study, and 2, 5, 8, and 24 hours after dosing in the time course experiment. The inhibition of allodynia was determined for each animal by dividing the increase in paw withdrawal threshold after treatment by the difference between baseline and pretreatment paw withdrawal values. This fraction was then converted to percent inhibition by multiplying by 100.", "key": {"[1]": {"conditions": "10 mg/kg oral, 2 hours after treatment (Table II)"}, "[2]": {"conditions": "10 mg/kg oral, 2 hr after dose (Table I)"}, "[3]": {"conditions": "10 mg/kg oral, 5 hours after treatment"}, "[4]": {"conditions": "10 mg/kg oral, 8 hours after treatment"}, "[5]": {"conditions": "10 mg/kg oral, 24 hours after treatment"}}, "data": [{"compound": "C[C@H]1CC(CN)(CC(=O)O)C[C@@H]1C", "note": "[Compound A, (3S, 4S)-(1-Aminomethyl-3,4-dimethyl-cyclopentyl)-acetic acid]", "values": [{"measurement": "Mean Paw Withdrawal Threshold before dose (g ± S.E.M.)", "setting": "3 mg/kg group, before oral dose", "value": "6.3 ± 0.8", "unit": "g"}, {"measurement": "Mean % Inhibition of Allodynia", "setting": "3 mg/kg oral, 2 hr after dose", "value": 33, "unit": "%"}, {"measurement": "Mean Paw Withdrawal Threshold 2 hr after dose (g ± S.E.M.)", "setting": "3 mg/kg oral, 2 hr after dose", "value": "11.4 ± 1.7", "unit": "g"}, {"measurement": "Mean Paw Withdrawal Threshold (g ± S.E.M.)", "setting": "10 mg/kg group, Prior to Treatment (Table II)", "value": "6.5 ± 0.9", "unit": "g"}, {"measurement": "Mean Paw Withdrawal Threshold before dose (g ± S.E.M.)", "setting": "10 mg/kg group, before oral dose (Table I)", "value": "6.2 ± 1.0", "unit": "g"}, {"measurement": "Efficacy sustained throughout observation period after dosing", "setting": "10 mg/kg oral", "value": "≥ 24", "unit": "h"}, {"measurement": "Mean % Inhibition of Allodynia", "setting": "[1]", "value": "60% ± 10"}, {"measurement": "Mean Paw Withdrawal Threshold after treatment (g ± S.E.M.)", "setting": "[1]", "value": "16.0 ± 1.4", "unit": "g"}, {"measurement": "Mean % Inhibition of Allodynia", "setting": "[2]", "value": 72, "unit": "%"}, {"measurement": "Mean Paw Withdrawal Threshold 2 hr after dose (g ± S.E.M.)", "setting": "[2]", "value": "17.4 ± 1.5", "unit": "g"}, {"measurement": "Mean % Inhibition of Allodynia", "setting": "[3]", "value": "62% ± 10"}, {"measurement": "Mean Paw Withdrawal Threshold after treatment (g ± S.E.M.)", "setting": "[3]", "value": "15.2 ± 1.8", "unit": "g"}, {"measurement": "Mean % Inhibition of Allodynia", "setting": "[4]", "value": "31% ± 12"}, {"measurement": "Mean Paw Withdrawal Threshold after treatment (g ± S.E.M.)", "setting": "[4]", "value": "9.9 ± 2.0", "unit": "g"}, {"measurement": "Mean % Inhibition of Allodynia", "setting": "[5]", "value": "46% ± 17"}, {"measurement": "Mean Paw Withdrawal Threshold after treatment (g ± S.E.M.)", "setting": "[5]", "value": "13.3 ± 2.8", "unit": "g"}, {"measurement": "Minimum effective dose for attenuating allodynia", "setting": "oral, 2 hours after dosing", "value": 10, "unit": "mg/kg"}]}]}
